Columns and labels:
[1] = system: Pseudomonas aeruginosa (ATCC 15442); experiment: Biocidal activity against simulated biofilm (bacteria entrapped in alginate gel beads), surviving CFU; type: cell-based; conditions: for time of total kill: alginate beads, pH 7
Description: A biofilm simulation system developed by the Biofilm Bozeman Institute Montana (Grobe K. J., Zahler J., and Stewart P. S., 2002 in “Role of dose concentration in biocide efficacy against Pseudomonas aeruginosa Biofilms”, J. Industrial Microbiology & Biotechnology, vol. 29, pp 10-15), was used in this experiment to evaluate the efficacy of biocidal solutions against biofilm.
The biofilm simulation was created by entrapping bacteria in alginate gel beads. A plate of R2A agar was streaked with Pseudomonas aeruginosa (ATCC 15442) and incubated at 35° C. overnight. Buffer phosphate at pH 7.2 was used to scrap off the bacteria from the agar plate and to create a suspension. The bacterial suspension was mixed with an equal volume of an aqueous 4% sodium alginate solution, to make a final 2% alginate solution. The alginate and bacterial slurry were placed in a 50 ml syringe attached to a 22 gauge needle, connected to a compressed air tank, allowing the syringe to be pressurized. At 20 psig pressure a stream of small drops was forced out and dropped into a stirred solution of 50 mM CaCl2. The Ca^+2 cross linked the alginate, and semi solid beads with entrapped bacterial cells were formed. The beads were allowed to stir in the CaCl2 solution for about 20 minutes, and then rinsed in a dilute 5 mM CaCl2 solution. Several flasks containing 100 beads each were incubated overnight at 35° C. on a rotating shaker in a buffer solution (at pH 7) with 5 mM addition of CaCl2 to maintain the beads structure. The resulting beads diameter is about 2 mm
At the beginning of the experiment, the supernatant of the beads buffer suspension containing 5 mM CaCl2 was decanted and replaced by the 100 ml biocide solution with the required concentration (between 0.5, 1, 2.5 and 5 ppm as total Cl2).
After different interval contact times, 10 beads were removed and placed in a 5 g/l sodium thiosulfate solution containing 50 mM sodium citrate. The sodium citrate was used to dissolve the alginate gel and release the bacteria into the solution. The neutralizer-citrate solution was placed in the refrigerator for 2 hours, than diluted and placed on R2A agar plates using pour plate technique. The plates were incubated at 35° C. for 24-48 hours and counted. The efficacy and toxicity of the neutralizer were checked as well as a control experiment without biocide addition. Four concentrations (0.5, 1, 2.5 and 5 ppm) were tested at four different contact times (5, 15, 30, and 60 min) FIGS. 1-10 describe the surviving colony forming units (CFU) of the bacteria after the biocide treatment at different contact times.

[2] = Stability of the aqueous biocide solution (total active chlorine as Cl2 over time); type: physicochemical
Description: The concentration of the active chlorine is based on the measurement of total chlorine (as Cl2). The term “as Cl2” refers to the measurement of the active chlorine as total chlorine.

[3] = 1 ppm dose, contact time not stated

Row | Compound | effect on the microbe concentration ([1]; 0.5 ppm dose) | effect on the microbe concentration ([1]; 1 ppm dose) | log reduction of microbe concentration [1, 3] [log] | time of total kill ([1]; 2.5 ppm dose (as total Cl2)) [min] | log reduction of microbe concentration ([1]; 2.5 ppm dose, after 60 min) | time of total kill ([1]; 5 ppm dose (as total Cl2)) [min] | active chlorine reading (as Cl2) ([2]; after 20.3 hrs) [ppm] | active chlorine remaining, percent of initial ([2]; after 20.3 hrs) [%] | active chlorine reading (as Cl2) ([2]; after 44.4 hrs) [ppm] | active chlorine remaining, percent of initial ([2]; after 44.4 hrs) [%] | time the solution / active Cl2 level stayed stable (unchanged) ([2]; aqueous solution about 500 ppm as Cl2) [h] | total active Cl2 found after mixing ([2]; freshly mixed solution, expected 500 ppm as Cl2) [ppm] | log reduction of microbe concentration ([1]; 0.5 ppm dose, contact time not stated) [log] | log reduction of microbe concentration ([1]; 2.5 ppm dose, contact time not stated) [log]
1 | O=c1nc([O-])n(Cl)c(=O)n1Cl.[Na+] [NaDCC, sodium dichloroisocyanurate] | almost no activity | almost no activity | 1 | 60 | more than 4 log | 30 | – | – | – | – | – | – | – | –
2 | NCl [chloramine] | – | – | – | – | – | – | 493 | 91 | 223 | 41.4 | 2 | 539 | 4 | –
3 | [Na+].[O-]Cl [NaOCl] | no effect was observed at all | – | 1 | – | 1 log | 60 | – | – | – | – | – | – | – | 1
4 | O=c1n(Cl)c(=O)n(Cl)c(=O)n1Cl [TCCA, trichloroisocyanuric acid] | almost no activity | almost no activity | 1 | 60 | – | 30 | – | – | – | – | – | – | – | –

Reference: patent US20160366886A1, “BIOCIDAL COMPOSITION, PREPARATION AND METHODS OF USE THEREOF” (BROMINE COMPOUNDS LTD., priority 2014, published 2016)
